Assay results taken from patent publication US10232023B2, “Methods for treatment of and prophylaxis against inflammatory disorders” (THE UNIVERSITY OF UTAH RESEARCH FOUNDATION, priority 2013, dated 2019).

Assays:
[1] = test system: Outbred Swiss-Webster mice, E. coli peritonitis; experiment: Murine E. coli peritonitis: peritoneal fluid and membrane analysis; format: in vivo, mouse
Procedure: Outbred Swiss-Webster mice were injected intraperitoneally with 4.5×10^7 colony-forming units (cfu) of E. coli±nNIF, CRISPP, or scrambled control peptide (SCR) (10 mg/kg, IP injection) one hour prior to E. coli infection. At the 3 hour time point after infection, 3 mice were sacrificed and the peritoneal fluid and peritoneal tissue were collected and analyzed for leukocyte accumulation, bacteriology, and in vivo NET formation. […] See Fuchs et al., J Cell Biol, 2007, 176: 231-241. The number of E. coli cfu/mL of peritoneal fluid in CRISPP pretreated mice was also determined compared to SCR mice (see FIG. 17C).
Animals were treated with CRISPP (10 mg/kg), nNIF (10 mg/kg), or SCR (10 mg/kg) by i.p. injection 1 hour prior to infection (E. coli, 4.5×10^7 cfu/mouse, i.p. injection) or stimulation (LPS, 25 mg/kg, i.p. injection (SIGMA)). Control mice were injected with saline alone. The mice were sacrificed in a CO2 chamber 3 hours post-infection/stimulation with the peritoneal contents harvested and analyzed. Briefly, the skin of the abdomen was cut open in the midline after thorough disinfection and without injuring the muscle. The peritoneal cavity was lavaged with sterile saline solution ([…]) and analyzed for in vivo NET formation, bacteriology, and leukocyte accumulation. NETs in the peritoneal fluid were qualitatively and quantitatively analyzed using live cell imaging with confocal microscopy and histone release assays. NETs on the inner surface of the peritoneal membrane were assessed quantitatively using live cell imaging followed by standardized grid analysis of 5 randomly selected high power visual fields per tissue sample (IMAGE-J software, NIH). Peritoneal bacterial colony forming units (cfu) counts were quantified by permeabilizing all recovered leukocytes with 0.1% Triton-X 100 for 10 minutes and performing serial dilutions and bacterial cultures on 5% sheep blood agar plates (HARDY DIAGNOSTICS). After a 24-hour incubation, bacterial counts were determined. Total leukocyte counts in the peritoneal lavage were determined in Neubauer chambers using an optical microscope after dilution in Turk's solution (2% acetic acid). Differential leukocyte analysis was performed using a 60× oil immersion objective to assess morphology of cyto-centrifuged cells stained with May-Grunwald-Giemsa dye.

[2] = test system: PMNs isolated from healthy adult donors; experiment: PMN chemotaxis, modified Boyden Chamber assay; format: cell-based, human; settings: 1 nM, one hour pre-incubation; IL-8 2 ng/mL
Procedure: Chemotaxis by PMNs isolated from healthy adult donors was assessed using a modified Boyden Chamber assay±a one hour pre-incubation […] (1 nM), or SCR (1 nM). Recombinant human IL-8 (2 ng/mL) was used as the chemoattractant. Chemotaxis through a 5 micron filter was determined by counting PMNs in 10 randomly selected high-power fields as previously described in Hill et al., Lancet, 1974, 2: 617-619. In separate experiments, […], or SCR (all at 1 nM) were evaluated for chemoattractant activity using the same system.

human PMNs and platelets = experiment: Platelet/PMN aggregation; format: cell-based; settings: LPS-stimulated PMNs mixed with thrombin-stimulated platelets
Procedure: Using protocols modified from Saboor et al., […] Med Sci, 2013, 20: 62-66, human PMNs (2×10^6 cells/mL) were isolated and incubated with […] or SCR (0.1-10 ng/ml) for 1 hour prior to addition of freshly isolated human platelet at a ratio of 100:1 for another 15 minute incubation. After this period, the cells (PMNs and platelets) were stimulated with thrombin (0.1 IU/mL) or control M-199 media for 1 hour. The cells were stained for 20 minutes with the following primary monoclonal antibodies: PE-conjugated CD41 and FITC-conjugated CD16. Isotype and fluorochrome matched control antibodies were used. Flow cytometry was performed using BECTON-DICKINSON FACSCAN and CELLQUEST software.

[3] = test system: outbred Swiss mice, murine CL/P model; experiment: Survival in cecal ligation and puncture (CL/P) model; format: in vivo, mouse; settings: 10 mcg/kg IP, 1 hour prior and 6 hours after surgery, vs CL/P control, p=0.06
Procedure: FIG. 11 is a graph tracking survival of outbred Swiss mice in various treatment arms of a murine CL/P model. CRISPP treated mice (10 mcg/kg) received 2 doses intraperitoneally; one given 1 hour prior to surgery or sham surgery and one dose given 6 hours after surgery. The same dose, delivery route, and schedule were followed for the scrambled peptide control mice. Ten mice were assessed in each of the CL/P groups.
Survival of outbred Swiss mice was tracked in various treatment arms following intraperitoneal injection of either LPS (20 mg/kg) or E. coli (4×10^7 bacteria), as shown in FIGS. 10A and 10B. […] Six mice were assessed in both groups: LPS+CRISPP and LPS+scrambled control peptide. […] Ten mice were assessed in each group: no treatment, E. coli+CRISPP, and E. coli+scrambled control peptide. […] Referring to FIG. 11, CRISPP was also evaluated in a murine model of polymicrobial infection caused by cecal ligation and puncture (CL/P). […] Ten mice were assessed in each of the CL/P groups. […]
Animals were treated with CRISPP (10 mg/kg), nNIF (10 mg/kg), or SCR (10 mg/kg) by i.p. injection 1 hour prior to and 6 hours after infection (E. coli, 4.5×10^7 cfu/mouse, i.p. injection) or stimulation (LPS, 25 mg/kg, i.p. injection). […] Survival was assessed over 6 days at 6 hour to 12 hour intervals.

[4] = 10 mg/kg IP pretreatment, vs SCR control

Cancer-Associated SCM-Recognition, Immune Defense Suppression, and Serine Protease Protection Peptide [CRISPP, nNIF-related peptide (nNRP)]
Peritoneal PMN accumulation ([1]; 10 mg/kg IP one hour prior to E. coli, 3 hours after infection, vs E. coli alone or SCR): significant increase | Peritoneal fluid bacterial concentration (E. coli cfu/mL) ([1]; 10 mg/kg IP one hour prior to E. coli, 3 hours after infection, vs SCR): significant increase | NET formation by histone H3 release assay of the peritoneal fluid [1, 4]: significant quantitative decrease | NET formation in the peritoneal fluid (live cell imaging) [1, 4]: qualitative decrease | Peritoneal membrane-associated NET formation ([1]; freshly resected peritoneal membrane, live cell imaging, standardized grid): qualitative and quantitative decrease | PMN chemotaxis [2]: did not significantly inhibit | Platelet/PMN association (flow cytometry) (human PMNs and platelets): did not alter | Survival [3]: approached statistical significance
